From patent US20020198315A1, “Salts of peptides with carboxy-terminated polyesters” (priority 1992, published 2002)

How the values were obtained:
[1] = cited from earlier work
[2] = Dissolution / solubility in dichloromethane; assay type: physicochemical
Protocol: To this solution was added trifluoroacetic acid (50 μl), and the mixture was stirred vigorously.
The drug solution was added to the copolymer solution and was mixed thoroughly. This mixture was then added dropwise to liquid nitrogen to freeze it as small beads. The solid material was freeze dried for two days using an Edwards high vacuum freeze drier, and the dried material was further dried at 50-55° C. in a vacuum oven for 24 hours.
The peptide known as Substance P, in the form of its acetate salt (ex Sigma, 2 mg) was added to dichloromethane (3 ml) and thoroughly agitated.
Lys^8-vasopressin acetate salt (2 mg, ex Sigma) was added to dichloromethane (3 ml) and agitated.
(i) Dichloromethane (4 ml) was added to a freeze-dried preparation of ZD6003 (39.72 mg).
A lactide/glycolide copolymer (75/25, 364.1 mg, Mw=16,800 by size exclusion chromatography, polydispersity=2.2, ex Boehringer Ingelheim) was added.

## CC(C)C[C@H](NC(=O)[C@@H](COC(C)(C)C)NC(=O)[C@H](Cc1ccc(O)cc1)NC(=O)[C@H](CO)NC(=O)[C@H](Cc1c[nH]c2ccccc12)NC(=O)[C@H](Cc1cnc[nH]1)NC(=O)[C@@H]1CCC(=O)N1)C(=O)N[C@@H](CCCNC(=N)N)C(=O)N1CCC[C@H]1C(=O)NNC(N)=O [Goserelin acetate]
40° C., stirred, aliquots after 2 and 9 Days, limit of detection 0.2 μg/ml
  goserelin in benzyl benzoate supernatant, in words: No goserelin was detectable in either sample
At 40° C.
  equilibrium solubility of goserelin in benzyl benzoate (estimated): less than 0.2 μg/mg
Lipophilic solvents such as benzyl benzoate
  solubility in benzyl benzoate, in words: not soluble

## CC(C)C[C@H](NC(=O)[C@@H](COC(C)(C)C)NC(=O)[C@H](Cc1ccc(O)cc1)NC(=O)[C@H](CO)NC(=O)[C@H](Cc1c[nH]c2ccccc12)NC(=O)[C@H](Cc1cnc[nH]1)NC(=O)[C@@H]1CCC(=O)N1)C(=O)N[C@@H](CCCNC(=N)N)C(=O)N1CCC[C@H]1C(=O)NNC(N)=O [goserelin, [D-Ser(Bu^t)^6, Azgly^10]-LHRH]
[1]
  metabolic half-life: 4 to 6 h

## Substance P
[2]
  behaviour in dichloromethane (dissolves or not), in words: showed no indication of dissolving

## [Het^−1, Arg^11, Ser^17,27,60,65] human G-CSF (granulocyte-colony stimulating factor) modified with polyethylene glycol 5000 [ZD6003]
[2]
  behaviour in dichloromethane (dissolves or not), in words: opaque dispersion of drug in the solvent

## Lys^8-vasopressin acetate salt
[2]
  behaviour in dichloromethane (dissolves or not), in words: showed no indication of dissolving
